From US8017767B2, “Sucralose composition” (Tate & Lyle Public Limited Company, priority 2000, dated 2011)

Experiment: Accelerated stability test (50° C.) with pH stability test of sucralose sample solution
Type: physicochemical
Excerpt: Label seven 6 oz. and seven 18 oz. WHIRLPAK® polyethylene bags with indelible marker for each batch being tested for stability. Accurately weigh 25 g±0.01 g of sucralose into each 6 oz. WHIRLPAK® polyethylene bag. Heat or impulse seal the 6 oz. bag to ensure air tightness. Cut off any excess polyethylene at the top of the bag above the seal. Place the 6 oz. sealed bag into the 18 oz. bag and heat or impulse seal the 18 oz. bag to ensure air tightness. Roll down the top of the 18 oz. bag above the seal and bend the metal ties to form hooks.
Place the prepared bags into an oven stabilized at 50° C.±0.5° C. by hanging them from racks by the bag hooks. The bags must be freely suspended and not touch anything. Record the time samples are placed into the oven.
The pH stability test is conducted on the sucralose at time zero (the day the samples are placed in the oven, before the sucralose is exposed to elevated temperature) and every 24 hours until the batch being tested fails the test.
Place approximately 100 ml of deionized water into a 150 ml beaker. Using 0.1 N hydrochloric acid and/or 0.1 N sodium hydroxide, adjust the pH of the water to be between 5.8 and 6.0. Record the pH reading.
Accurately weigh 5 g±0.001 g of the product to be tested and transfer it to a 50 ml volumetric flask. Dissolve and bring to the mark by adding pH-adjusted water. If the sample to be tested is one that has been exposed to heat, remove one bag of the batch being tested from the oven and allow it to cool to room temperature before opening and sampling.
Pour the solution into a 100 ml beaker containing a stir bar, and slowly stir the solution on a magnetic stirrer. Immerse the pH electrode in the sample, allow the pH reading to stabilize, and record the pH reading of the sample. If no pH drop is observed after all the bags have been tested, the experiment is void and the test must repeated with a larger number of bags.
Record (to one decimal place) the pH of both the pH-adjusted water used and the sample sucralose solution. Subtract the pH of the […]. Report the result as (−) for a pH drop and (+) for a pH gain, e.g.:
The sample fails the test if there is a pH drop of 1.0 pH unit or more. The pH stability of the batch is defined as the number of days until the pH drop between the sample solution and that of the pH adjusted water is ≧1.0.
Samples of sucralose were tested for stability using the above procedures, but using bags of different moisture permeability. All other experimental details were the same. The TYVEK®/polyethylene bags are permeable; the WHIRLPAK® bags are less permeable. The A8080 bag consists of aluminum foil laminated to low-density polyethylene, which makes it very impermeable to moisture.

[1] = 50° C., package A8080 (aluminum foil laminated to low-density polyethylene), impermeable
[2] = 50° C., package FF 91 TYVEK/Polyethylene, very permeable

Days to pH Failure (50° C., WHIRLPAK polyethylene bags, failure = pH drop ≧1.0, Example 2, pH at crystallizer varied)	Initial pH difference (sample solution vs pH-adjusted water at time zero, Example 2, pH at crystallizer varied)	Ph Stability [1]	Ph Stability [2]	SMILES
7 Days	+0.43			OC[C@H]1O[C@H](O[C@]2(CCl)O[C@H](CCl)[C@@H](O)[C@@H]2O)[C@H](O)[C@@H](O)[C@H]1Cl [Sample 46, 4,1′,6′-trichloro-4,1′,6′-trideoxy-galactosucrose]
		33 days	4 days	OC[C@H]1O[C@H](O[C@]2(CCl)O[C@H](CCl)[C@@H](O)[C@@H]2O)[C@H](O)[C@@H](O)[C@H]1Cl [Sample 47, 4,1′,6′-trichloro-4,1′,6′-trideoxy-galactosucrose]
		33 days	4 days	OC[C@H]1O[C@H](O[C@]2(CCl)O[C@H](CCl)[C@@H](O)[C@@H]2O)[C@H](O)[C@@H](O)[C@H]1Cl [sucralose, 4,1′,6′-trichloro-4,1′,6′-trideoxy-galactosucrose]
